#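 Compound exposure: 48 hours, 5 concentrations, 96-well plates. GI50 = concentration required for 50% inhibition of growth.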 Calls of active or inactive are those of the source. Rule as the data show it: active = GI50 up to about 1.1 µM and inactive = higher.
# Tests used:
# Experiment in all cases: NCI tumour cell line growth inhibition, 48 h
# KM12 = system: KM12
# MDA-MB-435 = system: MDA-MB-435
# ACHN = system: ACHN
# T47D = system: T47D
# NCI-H23 = system: NCI-H23
# IGROV-1 = system: IGROV-1
# A498 = system: A498
# M14 = system: M14
# MOLT-4 = system: MOLT-4
# MDA-MB-231 = system: MDA-MB-231
# 786-0 = system: 786-0
# SW-620 = system: SW-620
# OVCAR-5 = system: OVCAR-5
# HL-60 = system: HL-60
# HOP-62 = system: HOP-62
# A549 = system: A549
# UACC-257 = system: UACC-257
# RXF 393 = system: RXF 393
# OVCAR-8 = system: OVCAR-8
# HCT-15 = system: HCT-15
# U-251 = system: U-251
# SF-539 = system: SF-539
# NCI-H460 = system: NCI-H460
# SNB-19 = system: SNB-19
# OVCAR-3 = system: OVCAR-3
# SF-295 = system: SF-295
# LOX IMVI = system: LOX IMVI
# HOP-92 = system: HOP-92
# DU-145 = system: DU-145
# SK-MEL-5 = system: SK-MEL-5
# CAKI-1 = system: CAKI-1
# NCI/ADR-RES = system: NCI/ADR-RES
# COLO 205 = system: COLO 205
# Hs-578T = system: Hs-578T
# RPMI-8226 = system: RPMI-8226
# MCF7 = system: MCF7
# UACC-62 = system: UACC-62
# UO-31 = system: UO-31
# HCT-116 = system: HCT-116
# NCI-H226 = system: NCI-H226
# PC-3 = system: PC-3
# CCRF-CEM = system: CCRF-CEM
# SK-OV-3 = system: SK-OV-3
# K562 = system: K562
# SN12C = system: SN12C
# SR = system: SR
# SF-268 = system: SF-268
# SK-MEL-2 = system: SK-MEL-2
# MDA-N = system: MDA-N
# SK-MEL-28 = system: SK-MEL-28
# HCC 2998 = system: HCC 2998
# OVCAR-4 = system: OVCAR-4
# TK-10 = system: TK-10
# NCI-H522 = system: NCI-H522
# HT-29 = system: HT-29
# SNB-75 = system: SNB-75
# Malme-3M = system: Malme-3M
# EKVX = system: EKVX
structure (smiles),measurement,setting,value
O=c1oc2ccccc2c2c(=O)c3ccc(OC/C(=N/O)c4ccc(Cl)cc4)cc3oc12,GI50,KM12,3.11 µM (inactive)
same,GI50,MDA-MB-435,2.47 µM (inactive)
same,GI50,ACHN,5.85 µM (inactive)
same,GI50,T47D,29.4 µM (inactive)
same,GI50,NCI-H23,18.4 µM (inactive)
same,GI50,IGROV-1,31.5 µM (inactive)
same,GI50,A498,3.15 µM (inactive)
same,GI50,M14,14.6 µM (inactive)
same,GI50,MOLT-4,5.06 µM (inactive)
same,GI50,MDA-MB-231,20.8 µM (inactive)
same,GI50,786-0,11.4 µM (inactive)
same,GI50,SW-620,12.8 µM (inactive)
same,GI50,OVCAR-5,17.3 µM (inactive)
same,GI50,HL-60,9.25 µM (inactive)
same,GI50,HOP-62,15.1 µM (inactive)
same,GI50,A549,13.2 µM (inactive)
same,GI50,UACC-257,33.9 µM (inactive)
same,GI50,RXF 393,2.16 µM (inactive)
same,GI50,OVCAR-8,24 µM (inactive)
same,GI50,HCT-15,7.4 µM
same,GI50,U-251,9.51 µM (inactive)
same,GI50,SF-539,7.89 µM (inactive)
same,GI50,NCI-H460,11.9 µM (inactive)
same,GI50,SNB-19,14.9 µM (inactive)
same,GI50,OVCAR-3,3.62 µM (inactive)
same,GI50,SF-295,1.89 µM (inactive)
same,GI50,LOX IMVI,11.8 µM (inactive)
same,GI50,HOP-92,11 µM (inactive)
same,GI50,DU-145,18.6 µM (inactive)
same,GI50,SK-MEL-5,5.05 µM (inactive)
same,GI50,CAKI-1,10.6 µM (inactive)
same,GI50,NCI/ADR-RES,7.35 µM (inactive)
same,GI50,COLO 205,15 µM (inactive)
same,GI50,Hs-578T,8.3 µM (inactive)
same,GI50,RPMI-8226,11.7 µM (inactive)
same,GI50,MCF7,5.83 µM (inactive)
same,GI50,UACC-62,5.07 µM (inactive)
same,GI50,UO-31,14.3 µM (inactive)
same,GI50,HCT-116,11.2 µM (inactive)
same,GI50,NCI-H226,17.4 µM (inactive)
same,GI50,PC-3,7.48 µM (inactive)
same,GI50,CCRF-CEM,28.3 µM (inactive)
same,GI50,SK-OV-3,11.7 µM (inactive)
same,GI50,K562,2 µM (inactive)
same,GI50,SN12C,19.9 µM (inactive)
same,GI50,SR,2.88 µM (inactive)
same,GI50,SF-268,14.2 µM (inactive)
same,GI50,SK-MEL-2,4.85 µM (inactive)
same,GI50,MDA-N,3.57 µM (inactive)
N=C(N)SCCC(=O)CCSC(=N)N,GI50,KM12,70.3 µM (inactive)
same,GI50,MDA-MB-435,> 100 µM (inactive)
same,GI50,SK-MEL-28,> 100 µM (inactive)
same,GI50,ACHN,> 100 µM (inactive)
same,GI50,T47D,> 100 µM (inactive)
same,GI50,NCI-H23,> 100 µM (inactive)
same,GI50,A498,5.5 µM (inactive)
same,GI50,HCC 2998,> 100 µM (inactive)
same,GI50,M14,> 100 µM (inactive)
same,GI50,MOLT-4,99.5 µM (inactive)
same,GI50,MDA-MB-231,> 100 µM (inactive)
same,GI50,SW-620,> 100 µM (inactive)
same,GI50,OVCAR-4,> 100 µM (inactive)
same,GI50,TK-10,> 100 µM (inactive)
same,GI50,HL-60,> 100 µM (inactive)
same,GI50,A549,> 100 µM (inactive)
same,GI50,UACC-257,36 µM (inactive)
same,GI50,RXF 393,> 100 µM (inactive)
same,GI50,OVCAR-8,> 100 µM (inactive)
same,GI50,HCT-15,> 100 µM
same,GI50,U-251,> 100 µM (inactive)
same,GI50,NCI-H522,> 100 µM (inactive)
same,GI50,NCI-H460,> 100 µM (inactive)
same,GI50,SNB-19,> 100 µM (inactive)
same,GI50,OVCAR-3,> 100 µM (inactive)
same,GI50,SF-295,> 100 µM (inactive)
same,GI50,LOX IMVI,> 100 µM (inactive)
same,GI50,HOP-92,> 100 µM (inactive)
same,GI50,DU-145,> 100 µM (inactive)
same,GI50,SK-MEL-5,> 100 µM (inactive)
same,GI50,NCI/ADR-RES,91.2 µM (inactive)
same,GI50,COLO 205,> 100 µM (inactive)
same,GI50,Hs-578T,> 100 µM (inactive)
same,GI50,HT-29,> 100 µM (inactive)
same,GI50,MCF7,> 100 µM (inactive)
same,GI50,UO-31,> 100 µM (inactive)
same,GI50,HCT-116,> 100 µM (inactive)
same,GI50,NCI-H226,> 100 µM (inactive)
same,GI50,SNB-75,> 100 µM (inactive)
same,GI50,PC-3,> 100 µM (inactive)
same,GI50,CCRF-CEM,> 100 µM (inactive)
same,GI50,SK-OV-3,> 100 µM (inactive)
same,GI50,K562,99.5 µM (inactive)
same,GI50,SN12C,> 100 µM (inactive)
same,GI50,SR,> 100 µM (inactive)
same,GI50,SF-268,> 100 µM (inactive)
same,GI50,MDA-N,> 100 µM (inactive)
CN(C)CCCNC(=O)CCNC(=O)c1cc(NC(=O)c2cc(NC(=O)c3cc(NC(=O)CCCNC(=O)c4cc(NC(=O)c5cc(NC(=O)c6nccn6C)cn5C)cn4C)cn3C)cn2C)cn1C,GI50,KM12,> 100 µM (inactive)
same,GI50,MDA-MB-435,> 100 µM (inactive)
same,GI50,SK-MEL-28,> 100 µM (inactive)
same,GI50,ACHN,> 100 µM (inactive)
same,GI50,NCI-H23,> 100 µM (inactive)
same,GI50,IGROV-1,> 100 µM (inactive)
same,GI50,A498,> 100 µM (inactive)
same,GI50,HCC 2998,> 100 µM (inactive)
same,GI50,M14,> 100 µM (inactive)
same,GI50,MOLT-4,> 100 µM (inactive)
same,GI50,MDA-MB-231,> 100 µM (inactive)
same,GI50,786-0,> 100 µM (inactive)
same,GI50,SW-620,> 100 µM (inactive)
same,GI50,OVCAR-4,> 100 µM (inactive)
same,GI50,TK-10,> 100 µM (inactive)
same,GI50,OVCAR-5,> 100 µM (inactive)
same,GI50,Malme-3M,> 100 µM (inactive)
same,GI50,HL-60,> 100 µM (inactive)
same,GI50,HOP-62,> 100 µM (inactive)
same,GI50,A549,> 100 µM (inactive)
same,GI50,UACC-257,> 100 µM (inactive)
same,GI50,RXF 393,> 100 µM (inactive)
same,GI50,OVCAR-8,> 100 µM (inactive)
same,GI50,HCT-15,> 100 µM
same,GI50,U-251,> 100 µM (inactive)
same,GI50,NCI-H522,> 100 µM (inactive)
same,GI50,SF-539,> 100 µM (inactive)
same,GI50,NCI-H460,> 100 µM (inactive)
same,GI50,SNB-19,> 100 µM (inactive)
same,GI50,OVCAR-3,> 100 µM (inactive)
same,GI50,SF-295,> 100 µM (inactive)
same,GI50,LOX IMVI,> 100 µM (inactive)
same,GI50,HOP-92,> 100 µM (inactive)
same,GI50,SK-MEL-5,> 100 µM (inactive)
same,GI50,EKVX,> 100 µM (inactive)
same,GI50,CAKI-1,> 100 µM (inactive)
same,GI50,NCI/ADR-RES,> 100 µM (inactive)
same,GI50,COLO 205,> 100 µM (inactive)
same,GI50,Hs-578T,> 100 µM (inactive)
same,GI50,HT-29,> 100 µM (inactive)
same,GI50,RPMI-8226,> 100 µM (inactive)
same,GI50,MCF7,> 100 µM (inactive)
same,GI50,UO-31,> 100 µM (inactive)
same,GI50,HCT-116,> 100 µM (inactive)
same,GI50,NCI-H226,> 100 µM (inactive)
same,GI50,SNB-75,> 100 µM (inactive)
same,GI50,PC-3,> 100 µM (inactive)
same,GI50,CCRF-CEM,> 100 µM (inactive)
same,GI50,SK-OV-3,> 100 µM (inactive)
same,GI50,K562,> 100 µM (inactive)
same,GI50,SN12C,> 100 µM (inactive)
same,GI50,SF-268,> 100 µM (inactive)
same,GI50,SK-MEL-2,> 100 µM (inactive)
same,GI50,MDA-N,> 100 µM (inactive)

# From ChEMBL document CHEMBL1201862, “PubChem BioAssay data set” (2004)
